Earlier results, collected in the CATMoS acute toxicity set (Mansouri et al. 2021).

Assay: rat acute oral toxicity
Conditions: in vivo

In the case of `C=CCON/C(CCC)=C1\C(=O)CC(C)(C)C(C(=O)OC)=C1O`, the LD50 is listed as 2260 mg/kg.

For `CN1C(C(=O)Nc2nccs2)=C(O)c2ccccc2S1(=O)=O`, the LD50 is given as 136 mg/kg.

In the case of `CCCOP(=O)(SCCC)SCCC`, the LD50 is given as 129 mg/kg.

For `CNC(=O)ON=C1SCSC1(C)C`, the LD50 is given as 0.67 mg/kg.

In the case of `CCOP(=O)(OCC)SCC`, the LD50 is given as 27 mg/kg.

For `CC(CCC(=O)O)C(=O)O` (stereo unspecified), the LD50 is given as 300 mg/kg.

In the case of `C1N2CN3CN1CN(C2)C3`, the LD50 is given as 9200 mg/kg.

In the case of `CC(C)OP(=S)(OC(C)C)SCn1nc(Cl)ccc1=O`, the LD50 is listed as 190 mg/kg.

For `CCN(CC)CC1CCCCN1CC(=O)N1c2ccccc2C(=O)Nc2cccnc21` (stereo unspecified), the LD50 is given as 1530 mg/kg.

For `CCCOC(C1=NCCN1)c1ccccc1` (stereo unspecified), the LD50 is given as 350 mg/kg.

In the case of `C=CCSCC1(C(C)CCC)C(=O)N=C(O)NC1=O` (stereo unspecified), the LD50 is listed as 702 mg/kg.

In the case of `O=C(O)CCCC(=O)O`, the LD50 is given as 6000 mg/kg.

In the case of `CC(C)(CO)NCC(O)c1ccccc1` (stereo unspecified), the LD50 is given as 2080 mg/kg.

In the case of `CC[N+]1(CC)CCC(=C(c2ccccc2)c2ccccc2)C1C` (stereo unspecified), the LD50 is listed as 1090 mg/kg.

In the case of `CCCCN1CCOCC1`, the LD50 is given as 338 mg/kg.

In the case of `CN(C)c1ccc(N=Nc2cccc(C(=O)O)c2)cc1`, the LD50 is given as 3760 mg/kg.

For `CC1=CC=C(C(C)C)CC1`, the LD50 is listed as 1680 mg/kg.

In the case of `CCOP(=O)(OCC)Oc1ccc2ccc(=O)oc2c1`, the LD50 is given as 29 mg/kg.

In the case of `C=CCNC(N)=S`, the LD50 is given as 200 mg/kg.

In the case of `CCN(CC)CCOc1ccccc1C(=O)CCc1ccccc1`, the LD50 is given as 716 mg/kg.

In the case of `Cc1cc(-c2ccc(N=Nc3c(S(=O)(=O)O)cc4cc(S(=O)(=O)O)cc(N)c4c3O)c(C)c2)ccc1N=Nc1c(S(=O)(=O)O)cc2cc(S(=O)(=O)O)cc(N)c2c1O`, the LD50 is given as 6200 mg/kg.

In the case of `Nc1ccc(Oc2ccc(N)cc2)cc1`, the LD50 is listed as 725 mg/kg.

In the case of `CCOC(C1=NCC(C)(CC)CN1)c1ccccc1` (stereo unspecified), the LD50 is listed as 220 mg/kg.

For `c1ccc(C2CC(N3CCCC3)CC(c3ccccc3)C2c2ccccn2)cc1` (stereo unspecified), the LD50 is given as 479 mg/kg.

In the case of `c1cc2c(c(NC3=NCCN3)c1)CCCC2`, the LD50 is listed as 190 mg/kg.

For `CCSCCOc1ccc([N+](=O)[O-])cc1`, the LD50 is listed as 826 mg/kg.

In the case of `CCCCCOc1c(Br)cc(Br)cc1COCCN(CC)CC`, the LD50 is listed as 350 mg/kg.

In the case of `C[Si](C)(C)OP(=O)(O[Si](C)(C)C)O[Si](C)(C)C`, the LD50 is listed as 3440 mg/kg.

In the case of `CCCCn1c(=O)n(CCC)c(=O)c2c(NC)n(C(=O)OC)nc21`, the LD50 is listed as 2380 mg/kg.

For `Cc1cccc(C(=O)O)c1O`, the LD50 is listed as 445 mg/kg.

For `O=C(COc1ccc(Cl)cc1)N1CCN(Cc2ccc3c(c2)OCO3)CC1`, the LD50 is listed as 4480 mg/kg.

In the case of `CN(C)CCNC(=O)C(C)(C)Oc1ccc(Cl)cc1`, the LD50 is given as 130 mg/kg.

For `O=S1(=O)CCC(NNc2ccccc2)C1` (stereo unspecified), the LD50 is given as 2380 mg/kg.

In the case of `Nc1ccc(Cl)c([N+](=O)[O-])c1`, the LD50 is given as 400 mg/kg.

In the case of `ClCc1cccnc1`, the LD50 is listed as 316 mg/kg.

In the case of `CN1CCc2ccccc21`, the LD50 is given as 1250 mg/kg.

In the case of `O=C(Oc1ccccc1)c1ccccc1O`, the LD50 is given as 3000 mg/kg.

In the case of `Clc1cccc(SCc2nn[nH]n2)c1`, the LD50 is listed as 2200 mg/kg.

In the case of `O=C1c2ccccc2C(=O)N1CC1CO1` (stereo unspecified), the LD50 is given as 4700 mg/kg.

For `Fc1c(Cl)c(Br)c2[nH]c(C(F)(F)F)nc2c1Cl`, the LD50 is given as 6.26 mg/kg.

In the case of `NC(=O)OCCCc1ccccc1`, the LD50 is given as 1110 mg/kg.

In the case of `Nc1cccc2c(N)cccc12`, the LD50 is given as 634 mg/kg.

For `CCOP(=O)(OCC)SCSCC`, the LD50 is listed as 0.25 mg/kg.

In the case of `FC(F)OC(Cl)C(F)(F)F` (stereo unspecified), the LD50 is listed as 4770 mg/kg.

In the case of `CCCCCCCCCCOc1c(OC)cc(C(N)=O)cc1OC`, the LD50 is listed as 1650 mg/kg.

In the case of `CCCCCCCc1ccccc1O`, the LD50 is given as 2750 mg/kg.

In the case of `O=C(O)/C=C/C(=O)O`, the LD50 is listed as 3850 mg/kg.

For `CC(Cl)(Cl)C(=O)O`, the LD50 is given as 3860 mg/kg.

For `Cc1ccc2[nH]c(C(F)(F)F)nc2c1[N+](=O)[O-]`, the LD50 is listed as 7.75 mg/kg.

For `CC(=O)OC1c2cccc(O)c2C(=O)c2c(O)cccc21`, the LD50 is listed as 347 mg/kg.

For `c1ccc([Se]c2ccccc2)cc1`, the LD50 is given as 360 mg/kg.

In the case of `Cc1cc(N)ccc1S(=O)(=O)NCCO`, the LD50 is given as 8900 mg/kg.

For `Cc1cc(O)ccc1S(C)(=O)=O`, the LD50 is listed as 7000 mg/kg.

For `CC(C)(C)N=NC(C)(C)O`, the LD50 is given as 329 mg/kg.

For `CC=C1CC(C)C(C)(O)C(=O)OCC2=CCN3CCC(OC1=O)C23` (stereo unspecified), the LD50 is listed as 85 mg/kg.

For `CCCCCCCCCCOC(=O)c1ccccc1C(=O)OCCCCCCCC`, the LD50 is given as 45000 mg/kg.

For `OCCCCC(O)CO` (stereo unspecified), the LD50 is given as 15500 mg/kg.

For `CN=C(O)O/N=C1/SCOC1C` (stereo unspecified), the LD50 is listed as 12 mg/kg.

In the case of `CCC(C)NCC(O)c1ccc(N)cc1` (stereo unspecified), the LD50 is listed as 650 mg/kg.

In the case of `Clc1cc2c(cc1Cl)Oc1c(Cl)c(Cl)c(Cl)c(Cl)c1O2`, the LD50 is given as 0.887 mg/kg.

For `CC(=O)Nc1cccc2c3ccccc3n(C)c12`, the LD50 is given as 3120 mg/kg.
